Data reported in patent publication US5444083A, “Pyrrolidine compound and pharmaceutical use” (Eisai Co., Ltd., priority 1989, dated 1995).
Structures can show the parent of a compound that is named as a salt.

What was measured:
[1] = target: T1, D1 receptor (striatum of rat) (Rattus norvegicus, UniProt P18901); assay: specific binding of D1 receptors in the striatum of rat; conditions: displacement of 3H-Sch23390 0.3 nM, rat striatum synaptosome fraction, 37 degree centigrade, 15 minutes
T1 construct: The striatum of rats were excised, homogenized; from tissue; host or cells: rat striatum, synaptosome fraction
T1 sequence (P18901 whole entry): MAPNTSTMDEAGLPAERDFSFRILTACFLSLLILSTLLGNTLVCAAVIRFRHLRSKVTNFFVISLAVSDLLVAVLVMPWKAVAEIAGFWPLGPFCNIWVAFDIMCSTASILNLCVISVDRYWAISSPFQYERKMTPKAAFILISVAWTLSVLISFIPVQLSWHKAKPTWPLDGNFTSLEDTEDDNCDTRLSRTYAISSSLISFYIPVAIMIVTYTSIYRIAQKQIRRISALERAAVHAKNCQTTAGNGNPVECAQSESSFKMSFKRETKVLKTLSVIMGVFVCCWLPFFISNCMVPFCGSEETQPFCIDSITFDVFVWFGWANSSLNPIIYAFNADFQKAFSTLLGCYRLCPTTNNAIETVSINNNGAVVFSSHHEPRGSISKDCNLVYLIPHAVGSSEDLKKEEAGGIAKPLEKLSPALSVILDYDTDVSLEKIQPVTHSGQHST
Experimental: (§1) 1. Test on specific binding of D1 and D2 receptors in the striatum of rat
(§2) The striatum of rats were excised, homogenized with a 0.05M Tris Fuffer and then centrifuged at 20,000×g to collect its synaptosome fraction. The sediment was washed several times with a 0.25M Tris Buffer and suspended in a 0.05M Tris Buffer containing 120 mM of Nacl, 5 mM of KCl, 2 mM of CaCls and 1 mM of MgCl2. The suspension was, in portions, placed in the frozen state at minus 80 degree centigrade. ^3 H-Sch23390 having a final concentration of 0.3 nM in the case of D1 and ^3 H-Spiperone having a finish concentration of 0.2 nM in the case of D2 were added to the portions of the suspension, respectively, together with a specimen. The mixtures were incubased at 37 degree centigrade for 15 minutes. Having been filtrated with a Whatman GF/B filter, they were examined with a liquid scintillation counter.

[2] = target: T2, D2 receptor (striatum of rat) (Rattus norvegicus, UniProt P61169); assay: specific binding of D2 receptors in the striatum of rat; conditions: displacement of 3H-Spiperone 0.2 nM, rat striatum synaptosome fraction, 37 degree centigrade, 15 minutes
T2 construct: The striatum of rats were excised, homogenized; from tissue; host or cells: rat striatum, synaptosome fraction
T2 sequence (P61169 whole entry): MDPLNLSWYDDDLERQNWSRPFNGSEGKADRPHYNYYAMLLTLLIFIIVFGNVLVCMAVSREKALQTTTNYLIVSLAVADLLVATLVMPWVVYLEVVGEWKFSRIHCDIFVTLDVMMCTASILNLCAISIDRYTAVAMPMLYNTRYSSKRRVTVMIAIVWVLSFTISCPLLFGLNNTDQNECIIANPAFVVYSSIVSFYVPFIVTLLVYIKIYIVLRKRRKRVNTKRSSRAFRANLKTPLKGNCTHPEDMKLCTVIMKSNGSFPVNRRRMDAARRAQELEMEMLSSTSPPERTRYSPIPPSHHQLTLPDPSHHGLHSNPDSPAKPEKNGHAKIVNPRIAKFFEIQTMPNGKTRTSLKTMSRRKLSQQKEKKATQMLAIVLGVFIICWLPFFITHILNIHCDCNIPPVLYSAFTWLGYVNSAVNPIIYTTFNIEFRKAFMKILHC
Experimental: as §1, §2

[3] = tested on: anesthetized dogs; assay: Action cardiohemodynamics in anesthetized dogs; assay type: in vivo, Mongrel dogs; conditions: Canis lupus familiaris, iv, intravenously, read-out: decrease of mean blood pressure; for inhibition in vivo at 0.01 mg/kg: 10 microgram/kg; for inhibition in vivo at 0.003 mg/kg: 3 microgram/kg; for inhibition in vivo at 0.001 mg/kg: 1 microgram/kg
Experimental: 2. Action cardiohemodynamics in anesthetized dogs
Mongrel dogs of about 10 kg were anesthetized with the intravenous administration of 20 mg/kg of thiopental sodium. They were then treated by introducing oxygen gas, nitrous oxide gas and enflurane in combination through an endotracheal tube inserted thereinto to conduct artificial respiration and with an Acoma artificial respirator ARF-850E (trademark) and an Acoma anesthesia apparatus EM-A (trademark) to keep the anesthesia still effective. The aortic pressure and the internal pressure of the left ventricle were determined with a micro-tip catheter pressure transducers, MPC-500, tradename of Miller, inserted at the femoral arteries. The renal blood […] was determined by exposing by laparotomy the renal artery to a probe of an electromagnetic blood flowmeter, MFV-2100, tradename of Nihon Kohden Corp. Results are caught with a polygraph system, RM-6000, tradename of Nihon Kohden Corp.
The specimen was dissolved in a 0.9% saline solution and administered at the brachial vein through a catheter inserted thereinto. When the administration was made at the duodenum, the duodenum was exposed by the median incision to a catheter inserted thereinto. Results are shown in terms of an increase in percent of the renal blood flow and a decrease in percent of the mean blood pressure when the test compound was administered.

| IC50 [1] [nM] | IC50 [2] [nM] | SMILES | inhibition in vivo at 0.01 mg/kg [3] [%] | inhibition in vivo at 0.003 mg/kg [3] [%] | inhibition in vivo at 0.001 mg/kg [3] [%] |
| --- | --- | --- | --- | --- | --- |
| 4800 | 88000 | Oc1ccc([C@@H]2CNC[C@H]2c2ccccc2)cc1O (relative stereo) [Compound A, trans-3-(3,4-dihydroxyphenyl)-4-phenylpyrrolidine hydrobromide] | – | – | – |
| 600 | 10000 | Cc1ccccc1[C@@H]1CNC[C@H]1c1ccc(O)c(O)c1 (relative stereo) [Compound B, trans-3-(3,4-dihydroxyphenyl)-4-(2-methylphenyl)pyrrolidine hydrobromide] | 23 | – | – |
| 600 | 7000 | Oc1ccc([C@@H]2CNC[C@H]2c2ccccc2Cl)cc1O (relative stereo) [Compound C, trans-3-(2-chlorophenyl)-4-(3,4-dihydroxyphenyl)pyrrolidine hydrobromide] | 21 | – | – |
| 380 | 5300 | Oc1ccc([C@@H]2CNC[C@H]2c2cccc(O)c2Cl)cc1O (relative stereo) [Compound D, trans-3-(2-chloro-3-hydroxyphenyl)-4-(3,4-dihydroxyphenyl)pyrrolidine hydrobromide] | – | 15 | – |
| 170 | 90000 | Cc1ccsc1[C@@H]1CNC[C@H]1c1ccc(O)c(O)c1 (relative stereo) [Compound E, trans-3-(3,4-dihydroxyphenyl)-4-(3-methylthienyl)pyrrolidine hydrobromide] | 15 | – | – |
| 9000 | 50000 | Cc1ccsc1[C@H]1CNC[C@H]1c1ccc(O)c(O)c1 (relative stereo) [Compound F, cis-3-(3,4-dihydroxyphenyl)-4-(3-methylthienyl)pyrrolidine hydrobromide] | – | – | – |
| 400 | 6000 | Oc1ccc([C@@H]2CNC[C@H]2c2cccc3ccsc23)cc1O (relative stereo) [Compound G, trans-3-(7-benzothiophenyl)-4-(3,4-dihydroxyphenyl)pyrrolidine hydrobromide] | – | – | – |
| 300 | 300 | Oc1ccc([C@@H]2CNC[C@H]2Cc2cc(Cl)ccc2O)cc1O (relative stereo) [Compound H, trans-3-(3-chloro-6-hydroxyphenyl)-methyl-4-(3,4-dihydroxyphenyl)-pyrrolidine] | – | 15 | – |
| 200 | 70 | Oc1ccc([C@@H]2CNC[C@H]2Cc2c(O)cccc2O)cc1O (relative stereo) [Compound I, trans-3-(2,6-dihydroxyphenyl)methyl-4-(3,4-dihydroxyphenyl)pyrrolidine] | – | 29 | – |
| 130 | 1000 | Oc1ccc([C@@H]2CNC[C@H]2Cc2c(O)ccc(Cl)c2O)cc1O (relative stereo) [Compound J, trans-3-(3-chloro-2,6-dihydroxyphenyl)-methyl-4-(3,4-dihydroxyphenyl)-pyrrolidine] | – | – | 22 |
| 130 | 2000 | Oc1ccc([C@@H]2CNC[C@H]2Cc2cc(F)cc(F)c2O)cc1O (relative stereo) [Compound K, trans-3-(3,5-difluoro-2-hydroxyphenyl)-methyl-4-(3,4-dihydroxyphenyl)-pyrrolidine] | – | – | 17 |
| 200 | 5000 | Oc1ccc([C@@H]2CNC[C@H]2Cc2cccc(F)c2O)cc1O (relative stereo) [Compound L, trans-3-(3-fluoro-2-hydroxyphenyl)methyl-4-(3,4-dihydroxyphenyl)pyrrolidine] | – | 21 | – |
